Results published in US10377770B2 (Novartis AG, priority 2015, dated 2019).
pIC50: −log10 of the molar value.

Target: C-Raf FL (full length CRAF with Y340E and Y341E activating mutations, co-expressed with h14-3-3 zeta) (Homo sapiens (Human), UniProt P04049, Y340E/Y341E)
Assay: In vitro Raf activity determination, AlphaScreen p-MEK readout, c-Raf (C-Raf FL)
Format: biochemical
Settings: c-Raf approximately 4 nM, ATP 1 μM, pre-incubation 60 minutes, reaction 1 hour
Outline: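 Full-length C-Raf (~4 nM) pre-incubated 60 min at room temperature with compound and kinase-dead biotinylated MEK1 (~10 nM) in Tris pH 7.5, 15 mM MgCl2, BSA, DTT. Reaction started with 1 μM ATP and run 1 h at room temperature. Phospho-MEK detected by AlphaScreen with anti-p-MEK antibody.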

Sequence of C-Raf FL (full length CRAF with Y340E and Y341E activating mutations, co-expressed with h14-3-3 zeta) (P04049 whole entry Y340E/Y341E): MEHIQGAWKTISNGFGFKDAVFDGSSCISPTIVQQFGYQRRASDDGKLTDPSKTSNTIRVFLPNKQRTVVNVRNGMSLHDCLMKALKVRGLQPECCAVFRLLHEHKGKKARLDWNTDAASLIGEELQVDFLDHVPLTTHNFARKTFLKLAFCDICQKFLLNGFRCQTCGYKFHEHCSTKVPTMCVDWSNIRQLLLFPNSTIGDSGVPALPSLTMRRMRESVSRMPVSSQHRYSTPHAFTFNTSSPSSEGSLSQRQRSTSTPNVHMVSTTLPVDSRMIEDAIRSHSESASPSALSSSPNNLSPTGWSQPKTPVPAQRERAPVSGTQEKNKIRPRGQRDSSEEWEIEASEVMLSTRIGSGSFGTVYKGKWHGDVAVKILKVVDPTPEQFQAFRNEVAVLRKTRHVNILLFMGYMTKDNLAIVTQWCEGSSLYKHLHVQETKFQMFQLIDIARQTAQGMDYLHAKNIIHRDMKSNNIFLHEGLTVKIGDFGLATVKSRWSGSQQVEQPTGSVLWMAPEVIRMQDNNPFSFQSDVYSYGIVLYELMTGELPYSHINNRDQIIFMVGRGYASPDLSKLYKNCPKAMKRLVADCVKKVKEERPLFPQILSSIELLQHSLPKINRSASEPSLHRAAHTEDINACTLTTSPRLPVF
Sequence of C-Raf FL (full length CRAF with Y340E and Y341E activating mutations, co-expressed with h14-3-3 zeta) (P63104 whole entry partner): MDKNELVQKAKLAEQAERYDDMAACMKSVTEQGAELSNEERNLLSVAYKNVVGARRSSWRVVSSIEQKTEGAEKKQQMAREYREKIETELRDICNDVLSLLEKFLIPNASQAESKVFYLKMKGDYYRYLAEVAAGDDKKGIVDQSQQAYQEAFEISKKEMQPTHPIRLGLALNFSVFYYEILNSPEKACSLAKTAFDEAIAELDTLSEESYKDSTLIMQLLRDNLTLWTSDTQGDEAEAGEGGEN

Compound	pIC50
Cc1ncc(NC(=O)c2ccnc(C(F)(F)F)c2)cc1-c1ccc2c(c1)N1CCOCC[C@H]1C[C@@H]2O [Example 443, N-(5-((5aS,7S)-7-hydroxy-1,2,5,5a,6,7-hexahydro-4H-[1,4]oxazepino [4,5-a]quinolin-10-yl)-6-methylpyridin-3-yl)-2-(trifluoromethyl) isonicotinamide]	9.22
Cc1ncc(NC(=O)c2ccnc(C(C)(C)F)c2)cc1-c1ccc2c(c1)N1CCOCC[C@H]1C[C@H]2O [Example 444]	9.40
Cc1ncc(NC(=O)c2ccnc(C(C)(C)F)c2)cc1-c1ccc2c(c1)N1CCOCC[C@H]1C[C@@H]2O [Example 445, 2-(2-fluoropropan-2-yl)-N-(5-((5aS,7S)-7-hydroxy-1,2,5,5a,6,7-hexahydro-4H-[1,4]oxazepino [4,5-a]quinolin-10-yl)-6-methylpyridin-3-yl)isonicotinamide]	9.15
Cc1ncc(NC(=O)c2cccc(C(F)(F)F)c2)cc1-c1ccc2c(c1)N1CCOCC[C@H]1C[C@H]2O [Example 446, N-(5-((5aS,7R)-7-hydroxy-1,2,5,5a,6,7-hexahydro-4H-[1,4]oxazepino [4,5-a]quinolin-10-yl)-6-methylpyridin-3-yl)-3-(trifluoro-methyl)benzamide]	9.15
Cc1ncc(NC(=O)c2cccc(C(F)(F)F)c2)cc1-c1ccc2c(c1)N1CCOCC[C@H]1C[C@@H]2O [Example 447, N-(5-((5aS,7S)-7-hydroxy-1,2,5,5a,6,7-hexahydro-4H-[1,4]oxazepino [4,5-a]quinolin-10-yl)-6-methylpyridin-3-yl)-3-(trifluoro-methyl)benzamide]	9.30
Cc1ccc(NC(=O)c2ccnc(C(F)(F)F)c2)cc1-c1cnc2c(c1)N1CCOC[C@@H]1[C@H](C(C)(C)O)C2 [Example 448, N-(3-((4aS,5R)-5-(2-hydroxypropan-2-yl)-1,2,4,4a,5,6-hexahydro-[1,4]oxazino[4,3-a][1,5]naphthyridin-9-yl)-4-methylphenyl)-2-(trifluoromethyl)isonicotinamide]	9.70
Cc1ncc(NC(=O)c2cccc(C(F)(F)F)c2)cc1-c1cnc2c(c1)N1CCOC[C@@H]1[C@H](C(C)(C)O)C2 [Example 449, N-(5-((4aS,5R)-5-(2-hydroxypropan-2-yl)-1,2,4,4a,5,6-hexahydro-[1,4]oxazino[4,3-a] [1,5]naphthyridin-9-yl)-6-methylpyridin-3-yl)-3-(trifluoro-methyl)benzamide]	9.15
Cc1ccc(NC(=O)c2ccnc(C(C)(F)F)c2)cc1-c1cnc2c(c1)N1CCOC[C@@H]1[C@H](C(C)(C)O)C2 [Example 450, 2-(1,1-difluoroethyl)-N-(3-((4aS,5R)-5-(2-hydroxypropan-2-yl)-1,2,4,4a,5,6-hexahydro-[1,4]oxazino[4,3-a][1,5]naphthyridin-9-yl)-4-methylphenyl) isonicotinamide]	9.70
Cc1ccc(NC(=O)c2ccnc(C(F)(F)F)c2)cc1-c1cnc2c(c1)N1CCOC[C@H]1[C@@H](C(C)(C)O)C2 [Example 451, N-(3-((4aR,5S)-5-(2-hydroxypropan-2-yl)-1,2,4,4a,5,6-hexahydro-[1,4]oxazino[4,3-a][1,5]naphthyridin-9-yl)-4-methylphenyl)-2-(trifluoromethyl) isonicotinamide]	9.22
Cc1ncc(NC(=O)c2cccc(C(F)(F)F)c2)cc1-c1cnc2c(c1)N1CCOC[C@H]1[C@@H](C(C)(C)O)C2 [Example 452, N-(5-((4aR,5S)-5-(2-hydroxypropan-2-yl)-1,2,4,4a,5,6-hexahydro-[1,4]oxazino[4,3-a][1,5]naphthyridin-9-yl)-6-methylpyridin-3-yl)-3-(trifluoro-methyl)benzamide]	9.30
Cc1ccc(NC(=O)c2ccnc(C(C)(F)F)c2)cc1-c1cnc2c(c1)N1CCOC[C@H]1[C@@H](C(C)(C)O)C2 [Example 453, 2-(1,1-difluoroethyl)-N-(3-((4aR,5S)-5-(2-hydroxypropan-2-yl)-1,2,4,4a,5,6-hexahydro-[1,4]oxazino[4,3-a][1,5]naphthyridin-9-yl)-4-methylphenyl) isonicotinamide]	9.15
Cc1ccc(NC(=O)c2ccnc(C(F)(F)F)c2)cc1-c1cnc2c(c1)N1CCOC[C@@H]1[C@@H](C(C)(C)O)C2 [Example 454]	9.10
Cc1ncc(NC(=O)c2cccc(C(F)(F)F)c2)cc1-c1cnc2c(c1)N1CCOC[C@@H]1[C@@H](C(C)(C)O)C2 [Example 455, N-(5-((4aS,5S)-5-(2-hydroxypropan-2-yl)-1,2,4,4a,5,6-hexahydro-[1,4]oxazino[4,3-a][l,5]naphthyridin-9-yl)-6-methylpyridin-3-yl)-3-(trifluoro-methyl)benzamide]	8.89
Cc1ccc(NC(=O)c2ccnc(C(C)(F)F)c2)cc1-c1cnc2c(c1)N1CCOC[C@@H]1[C@@H](C(C)(C)O)C2 [Example 456, 2-(1,1-difluoroethyl)-N-(3-((4aS,5S)-5-(2-hydroxypropan-2-yl)-1,2,4,4a,5,6-hexahydro-[1,4]oxazino[4,3-a][1,5]naphthyridin-9-yl)-4-methylphenyl) isonicotinamide]	9.15
Cc1ccc(NC(=O)c2ccnc(C(F)(F)F)c2)cc1-c1cnc2c(c1)N1CCOC[C@H]1[C@H](C(C)(C)O)C2 [Example 457]	9.40
Cc1ncc(NC(=O)c2cccc(C(F)(F)F)c2)cc1-c1cnc2c(c1)N1CCOC[C@H]1[C@H](C(C)(C)O)C2 [Example 458, N-(5-((4aR,5R)-5-(2-hydroxypropan-2-yl)-1,2,4,4a,5,6-hexahydro-[1,4]oxazino[4,3-a][1,5]naphthyridin-9-yl)-6-methylpyridin-3-yl)-3-(trifluoro-methyl)benzamide]	9.15
Cc1ccc(NC(=O)c2ccnc(C(C)(F)F)c2)cc1-c1cnc2c(c1)N1CCOC[C@@H]1[C@@H](C(C)(C)O)C2 [Example 459, 2-(1,1-difluoroethyl)-N-(3-((4aS,5S)-5-(2-hydroxypropan-2-yl)-1,2,4,4a,5,6-hexahydro-[1,4]oxazino[4,3-a][1,5]naphthyridin-9-yl)-4-methylphenyl) isonicotinamide]	9.40
Cc1ncc(NC(=O)c2ccnc(C(C)(F)F)c2)cc1-c1ccc2c(c1)N1CCOC[C@H]1[C@](F)(CF)C2 [Example 467]	8.72
Cc1ncc(NC(=O)c2ccnc(C(C)(C)C)c2)cc1-c1ccc2c(c1)N1CCOC[C@H]1[C@](F)(CF)C2 [Example 468, 2-(tert-butyl)-N-(5-((4aS,5S)-5-fluoro-5-(fluoromethyl)-1,2,4,4a,5,6-hexahydro-[1,4]oxazino[4,3-a]quinolin-9-yl)-6-methylpyridin-3-yl)isonicotinamide]	8.10
Cc1ccc(NC(=O)c2cncc(C(F)(F)F)c2)cc1-c1ccc2c(c1)N1CCOC[C@H]1[C@](F)(CF)C2 [Example 469, N-(3-((4aS,5S)-5-fluoro-5-(fluoromethyl)-1,2,4,4a,5,6-hexahydro-[1,4]oxazino[4,3-a]quinolin-9-yl)-4-methylphenyl)-5-(trifluorometh-yl)nicotinamide]	8.74
Cc1ncc(NC(=O)c2cncc(C(F)(F)F)c2)cc1-c1ccc2c(c1)N1CCOC[C@H]1[C@](F)(CF)C2 [Example 470, N-(5-((4aS,5S)-5-fluoro-5-(fluoromethyl)-1,2,4,4a,5,6-hexahydro-[1,4]oxazino[4,3-a]quinolin-9-yl)-6-methylpyridin-3-yl)-5-(trifluorometh-yl)nicotinamide]	8.66
Cc1ncc(NC(=O)c2ccnc(C(F)(F)F)c2)cc1-c1ccc2c(c1)N1CCOC[C@H]1[C@](F)(CF)C2 [Example 471, N-(5-((4aS,5S)-5-fluoro-5-(fluoromethyl)-1,2,4,4a,5,6-hexahydro-[1,4]oxazino[4,3-a]quinolin-9-yl)-6-methylpyridin-3-yl)-2-(trifluoromethyl)iso-nictonamide]	8.92
Cc1ccc(NC(=O)c2ccnc(C(F)(F)F)c2)cc1-c1ccc2c(c1)N1CCOC[C@H]1[C@](F)(CF)C2 [Example 472, N-(3-((4aS,5S)-5-fluoro-5-(fluoromethyl)-1,2,4,4a,5,6-hexahydro-[1,4]oxazino[4,3-a]quinolin-9-yl)-4-methylphenyl)-2-(trifluoromethyl)iso-nicotinamide]	8.70
Cc1ccc(NC(=O)c2ccnc(C(C)(F)F)c2)cc1-c1ccc2c(c1)N1CCOC[C@H]1[C@](F)(CF)C2 [Example 473]	8.82
Cc1ccc(NC(=O)c2ccnc(C(C)(C)C)c2)cc1-c1ccc2c(c1)N1CCOC[C@H]1[C@](F)(CF)C2 [Example 474, 2-(tert-butyl)-N-(3-((4aS,5S)-5-fluoro-5-(fluoromethyl)-1,2,4,4a,5,6-hexahydro-[1,4]oxazino[4,3-a]quinolin-9-yl)-4-methylphenyl)iso-nicotinamide]	8.26
Cc1ccc(NC(=O)c2cnnc(C(F)(F)F)c2)cc1-c1ccc2c(c1)N1CCOC[C@H]1[C@](F)(CF)C2 [Example 475, N-(3-((4aS,5S)-5-fluoro-5-(fluoromethyl)-1,2,4,4a,5,6-hexahydro-[1,4]oxazino[4,3-a]quinolin-9-yl)-4-methylphenyl)-6-(trifluorometh-yl)pyridazine-4-carboxamide]	9.40
Cc1ccc(NC(=O)c2ccnc(C(C)(F)F)c2)cc1-c1cc2c(cc1F)C[C@](F)(CO)[C@H]1COCCN21 [Example 476, N-(3-((4aR,5R)-5,8-difluoro-5-(hydroxymethyl)-1,2,4,4a,5,6-hexahydro-[1,4]oxazino[4,3-a]quinolin-9-yl)-4-methylphenyl)-2-(1,1-difluoroethyl)iso-nicotinamide]	9.70
Cc1ccc(NC(=O)c2cnnc(C(F)(F)F)c2)cc1-c1cc2c(cc1F)C[C@](F)(CO)[C@H]1COCCN21 [Example 477, N-(3-((4aR,5R)-5,8-difluoro-5-(hydroxymethyl)-1,2,4,4a,5,6-hexahydro-[1,4]oxazino[4,3-a]quinolin-9-yl)-4-methylphenyl)-6-(trifluoromethyl) pyridazine-4-carboxamide]	10.00
